Results published in PubChem BioAssay (NCI).
Values after ≈ are worked out from the molar mass of the structure shown.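 Tested at 5 concentrations; 48 h exposure; 96-well plates; endpoints linearly interpolated, else capped at highest concentration. GI50 is the concentration that inhibits growth by half. TGI: concentration producing complete growth inhibition.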

How the values were obtained:
Assay in all cases: DTP human tumour cell line panel, 48 h
HL-60(TB) leukemia = test system: HL-60(TB) leukemia
HOP-92 NSCLC = test system: HOP-92 NSCLC
IGROV1 ovarian = test system: IGROV1 ovarian
KM12 colon = test system: KM12 colon
NCI-H522 lung = test system: NCI-H522 lung
OVCAR-3 ovarian = test system: OVCAR-3 ovarian
OVCAR-4 ovarian = test system: OVCAR-4 ovarian
OVCAR-8 ovarian = test system: OVCAR-8 ovarian
SK-MEL-2 melanoma = test system: SK-MEL-2 melanoma
SNB-75 CNS = test system: SNB-75 CNS
HCC-2998 colon = test system: HCC-2998 colon
EKVX NSCLC = test system: EKVX NSCLC

SMILES | TGI (HL-60(TB) leukemia) | TGI (HOP-92 NSCLC) | TGI (IGROV1 ovarian) [µM] | TGI (KM12 colon) | TGI (NCI-H522 lung) | TGI (OVCAR-3 ovarian) | TGI (OVCAR-4 ovarian) | TGI (OVCAR-8 ovarian) [µM] | TGI (SK-MEL-2 melanoma) [µM] | TGI (SNB-75 CNS) [µM] | TGI (HCC-2998 colon) | TGI (EKVX NSCLC) | GI50 (EKVX NSCLC) [µg/mL] | GI50 (HCC-2998 colon) [µg/mL] | GI50 (HOP-92 NSCLC) [µg/mL] | GI50 (KM12 colon) [µg/mL] | GI50 (OVCAR-3 ovarian) [µg/mL] | GI50 (OVCAR-4 ovarian) [µg/mL] | GI50 (SNB-75 CNS) [µM]
C(/C=C(\Nc1ccccc1)c1ccc2ccccc2c1)=Nc1ccccc1 | 11.8 µM | 28.1 µM | 13.7 | 12.2 µM | 19 µM | 4.08 µM | 14.5 µM | 14.1 | 30.9 | 8.39 | – | – | – | – | – | – | – | – | –
COC(=O)CC(=O)OC1C[C@@H]2CCC3C(C)(C)CCC[C@]3(C)C23CC[C@@]1(C)C3 (stereo partly specified) | > 100 µM | 31.9 µM | 31.8 | 33.9 µM | 25.7 µM | 30.7 µM | 32.5 µM | 36.8 | – | 51.2 | 35 µM | – | – | – | – | – | – | – | –
O=C(Cn1c(=O)oc2ccccc21)N(c1ccccc1)c1ccccc1 | > 100 µM | – | > 100 | > 100 µM | – | > 100 µM | – | > 100 | > 100 | 71 | – | > 100 µM | – | – | – | – | – | – | –
CCCC(O)c1ccc2[nH]c3c(C)cc([N+](=O)[O-])c(C)c3c2c1 (stereo unspecified) | > 100 µM | – | – | > 100 µM | > 100 µM | > 100 µM | > 100 µM | > 100 | > 100 | > 100 | > 100 µM | > 100 µM | – | – | – | – | – | – | –
CCOC(=O)/C(C(=O)c1ccc[nH]1)=C1/CCCN1C | > 100 µM | – | > 100 | > 100 µM | – | > 100 µM | > 100 µM | > 100 | > 100 | > 100 | > 100 µM | > 100 µM | – | – | – | – | – | – | –
CC[C@@]1(O)C(=O)OCc2c1cc1n(c2=O)Cc2c-1nc1ccc(N)cc1c2CC[Si](C)(C)C | < 0.01 µM | 1.07 µM | 0.469 | 3.68 µM | 0.127 µM | 0.797 µM | 5.94 µM | 0.818 | 0.427 | – | 0.103 µM | 3.23 µM | – | – | – | – | – | – | –
Cc1c2ccncc2c(C)c2c1[nH]c1ccc(O)cc12 | 0.0548 µg/mL | 0.579 µg/mL | – | 0.271 µg/mL | 0.172 µg/mL | 0.435 µg/mL | 0.303 µg/mL | – | – | – | 1.63 µg/mL | 0.273 µg/mL | 0.0921 (≈ 0.351 µM) | 0.261 (≈ 0.996 µM) | 0.0448 (≈ 0.171 µM) | 0.0458 (≈ 0.174 µM) | 0.0909 (≈ 0.347 µM) | 0.148 (≈ 0.564 µM) | 22600
O=C1CCNC/C1=C\c1ccccc1 | 47.7 µM | – | > 100 | 28.9 µM | 23.4 µM | 54.8 µM | 31.3 µM | 43.4 | > 100 | > 100 | 42.8 µM | > 100 µM | – | – | – | – | – | – | –
CCOc1c2c(cc3c1C(=O)c1c(OC)cccc1C3=O)C=C(OC)CC2 | 13.2 µM | > 25 µM | > 25 | > 25 µM | > 25 µM | > 25 µM | > 25 µM | > 25 | > 25 | > 25 | – | > 25 µM | – | – | – | – | – | – | –
C=CCSC1=N/C(=C\c2ccc(C)cc2)C(=O)N1CC=C | 28.1 µM | 57.5 µM | > 100 | 69.1 µM | > 100 µM | > 100 µM | > 100 µM | > 100 | 61 | – | 74.3 µM | 34.1 µM | – | – | – | – | – | – | –
CN(C)CCCn1c(-c2ccc(Br)cc2)csc1=Nc1ccccc1 | > 100 µM | > 100 µM | – | 26.4 µM | – | 23.3 µM | 38 µM | 32.1 | 31 | 29.8 | 18.3 µM | 23.8 µM | – | – | – | – | – | – | –
C1CCC(CC2CCC(NC3=NCCO3)CC2)CC1 (stereo unspecified) | 34 µM | – | 37.1 | 32.7 µM | 41.9 µM | 30.6 µM | 48.2 µM | 30.9 | 32.4 | 36.6 | 37.1 µM | 54.4 µM | – | – | – | – | – | – | –
CCCOC(=O)CCC(NC(=O)c1ccc(Nc2nc3ccccc3nc2-c2cccs2)cc1)C(=O)OCCC (stereo unspecified) | – | > 100 µM | > 100 | > 100 µM | > 100 µM | > 100 µM | > 100 µM | > 100 | 59.9 | – | > 100 µM | > 100 µM | – | – | – | – | – | – | –
Cc1csc(NCc2ccc(Cl)cc2)n1 | > 100 µM | 89.9 µM | > 100 | > 100 µM | > 100 µM | > 100 µM | > 100 µM | > 100 | > 100 | > 100 | – | > 100 µM | – | – | – | – | – | – | –
CC(=O)N(C(=O)CC(=O)N1N=C(C)C(N=Nc2cccc([N+](=O)[O-])c2)C1=O)c1ccc(Cl)cc1 (stereo unspecified) | > 10 µM | > 10 µM | > 10 | > 10 µM | > 10 µM | > 10 µM | > 10 µM | > 10 | – | > 10 | > 10 µM | – | – | – | – | – | – | – | –
COC(=O)C(=O)C(C(=O)C(=O)Nc1cc(C)ccc1C)c1nc2ccccc2[nH]c1=O (stereo unspecified) | – | > 100 µM | > 100 | > 100 µM | > 100 µM | > 100 µM | > 100 µM | > 100 | > 100 | > 100 | > 100 µM | > 100 µM | – | – | – | – | – | – | –
CSC(SC)=C(C#N)C(=O)Nc1ccc(Cl)cc1 | 69.3 µM | – | – | > 100 µM | – | > 100 µM | > 100 µM | > 100 | > 100 | > 100 | > 100 µM | > 100 µM | – | – | – | – | – | – | –
O=[N+]([O-])c1ccc(N=P(c2ccccc2)(c2ccccc2)c2ccccc2)n2nnnc12 | > 100 µM | 67.5 µM | > 100 | > 100 µM | > 100 µM | > 100 µM | 90.3 µM | > 100 | > 100 | 42.6 | – | > 100 µM | – | – | – | – | – | – | –
O=C1c2ccccc2CC12Cc1ccc3c(c1C2=O)CCCC3 (stereo unspecified) | > 100 µM | – | > 100 | > 100 µM | > 100 µM | > 100 µM | > 100 µM | > 100 | > 100 | 70.5 | > 100 µM | > 100 µM | – | – | – | – | – | – | –
COC(=O)[C@@H]1CN(C(=O)Cc2ccccc2)C(=O)N1 | > 100 µM | > 100 µM | > 100 | > 100 µM | > 100 µM | > 100 µM | > 100 µM | > 100 | – | > 100 | – | > 100 µM | – | – | – | – | – | – | –
